Source: patent publication US12606520B2, “Calpain-2 inhibitor compounds and methods of treatment” (WESTERN UNIVERSITY OF HEALTH SCIENCES, priority 2020, dated 2026)

Columns and labels:
[1] = PK in mice after iv injection of liposomal NA112: brain; format: in vivo; settings: mice iv 10 mg/kg liposomes, 24 hr; BLQ: below the limit of quantification, assay sensitivity 2 ng/ml
[2] = molecular target: T1, human calpain-1 (purified from erythrocytes, ecalpain-1) (Homo sapiens, UniProt P07384); assay: Inhibition of human calpain-1 purified from erythrocytes; format: biochemical
T1 construct: human calpain-1 (purified from erythrocytes, ecalpain-1); from tissue; host or cells: human erythrocytes
T1 sequence (P07384 1-714): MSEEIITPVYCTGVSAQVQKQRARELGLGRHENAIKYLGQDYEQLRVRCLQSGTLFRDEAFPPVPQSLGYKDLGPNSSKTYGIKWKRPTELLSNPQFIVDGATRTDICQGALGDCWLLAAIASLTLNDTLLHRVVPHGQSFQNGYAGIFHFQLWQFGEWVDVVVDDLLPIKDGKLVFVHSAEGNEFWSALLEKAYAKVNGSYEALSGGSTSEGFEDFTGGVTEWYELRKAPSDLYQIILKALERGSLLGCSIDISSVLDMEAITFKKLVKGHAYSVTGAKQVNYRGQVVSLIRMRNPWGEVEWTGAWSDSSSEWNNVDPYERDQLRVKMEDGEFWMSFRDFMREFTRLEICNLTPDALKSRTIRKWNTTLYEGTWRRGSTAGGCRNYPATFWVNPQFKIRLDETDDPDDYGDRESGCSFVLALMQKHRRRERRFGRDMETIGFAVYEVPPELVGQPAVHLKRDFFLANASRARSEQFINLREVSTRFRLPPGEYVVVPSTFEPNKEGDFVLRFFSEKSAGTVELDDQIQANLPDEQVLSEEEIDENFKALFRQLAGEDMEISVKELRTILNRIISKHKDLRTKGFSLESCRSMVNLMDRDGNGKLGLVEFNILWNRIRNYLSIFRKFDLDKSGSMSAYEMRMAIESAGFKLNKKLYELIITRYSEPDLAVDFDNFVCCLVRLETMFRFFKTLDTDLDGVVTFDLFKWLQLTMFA
T1 sequence (P04632 1-268 partner): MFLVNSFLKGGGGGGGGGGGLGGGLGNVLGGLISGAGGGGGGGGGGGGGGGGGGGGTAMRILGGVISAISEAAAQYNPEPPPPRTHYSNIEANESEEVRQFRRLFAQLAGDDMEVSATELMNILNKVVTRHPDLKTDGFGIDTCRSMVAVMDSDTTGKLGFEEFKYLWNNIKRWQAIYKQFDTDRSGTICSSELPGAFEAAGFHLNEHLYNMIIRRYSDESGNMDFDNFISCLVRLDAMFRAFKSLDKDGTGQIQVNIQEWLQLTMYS
Experimental: Various concentrations of NA112 in the liposomal formulation were incubated with human calpain-1 (purified from erythrocytes, ecalpain-1) or a recombinant human calpain-2 (hcalpain-2) and calpain activity assayed as in FIG. 1. IC50 were determined and transformed into Ki values (FIG. 10A, 10B). Values previously obtained with NA112 dissolved in DMSO are shown for comparison (FIG. 10B).
Cerebellar homogenates from wild-type (WT) or calpain-1 Knock-out (KO) mice were incubated with 20 μM calcium to activate calpain-1 or with 2 mM calcium to activate calpain-2, respectively, and increasing concentrations of NA184.
Like in NA112, there are 2 chiral centers in NA184. The inhibitory activity of the compounds NA184A (S-S isomer) and NA184B (S-R stereoisomer) against erythrocyte human calpain-1 (ecalpain-1) and recombinant human calpain-2 (hcalpain-2) were determined.

calpain-2 = molecular target: T2, calpain-2 (Rattus norvegicus, UniProt Q07009); assay: Calpain-2 activity in brain after TBI in rats; format: in vivo; settings: 1 mg/kg i.p. at 1 h and 8 h after TBI, 24 h after TBI
T2 construct: from tissue; host or cells: rat brain after TBI
T2 sequence (Q07009 1-700): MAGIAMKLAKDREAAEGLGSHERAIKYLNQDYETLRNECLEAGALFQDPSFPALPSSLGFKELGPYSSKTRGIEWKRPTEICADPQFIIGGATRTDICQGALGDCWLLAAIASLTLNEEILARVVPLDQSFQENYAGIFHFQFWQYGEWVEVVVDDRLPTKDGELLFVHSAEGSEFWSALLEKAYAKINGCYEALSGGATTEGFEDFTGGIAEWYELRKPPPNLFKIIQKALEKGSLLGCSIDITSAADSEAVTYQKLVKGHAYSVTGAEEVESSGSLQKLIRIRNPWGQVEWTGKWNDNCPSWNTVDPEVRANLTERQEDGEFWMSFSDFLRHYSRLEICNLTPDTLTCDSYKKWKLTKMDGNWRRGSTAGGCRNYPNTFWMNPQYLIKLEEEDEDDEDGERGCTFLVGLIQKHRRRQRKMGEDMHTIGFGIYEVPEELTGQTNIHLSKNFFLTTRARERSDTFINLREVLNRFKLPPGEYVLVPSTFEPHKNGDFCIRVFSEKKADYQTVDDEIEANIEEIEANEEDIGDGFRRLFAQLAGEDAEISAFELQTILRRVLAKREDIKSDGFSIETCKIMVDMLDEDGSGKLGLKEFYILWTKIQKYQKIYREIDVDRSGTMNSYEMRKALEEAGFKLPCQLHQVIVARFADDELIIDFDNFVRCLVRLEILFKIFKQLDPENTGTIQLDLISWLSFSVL
T2 sequence (Q64537 1-270 partner): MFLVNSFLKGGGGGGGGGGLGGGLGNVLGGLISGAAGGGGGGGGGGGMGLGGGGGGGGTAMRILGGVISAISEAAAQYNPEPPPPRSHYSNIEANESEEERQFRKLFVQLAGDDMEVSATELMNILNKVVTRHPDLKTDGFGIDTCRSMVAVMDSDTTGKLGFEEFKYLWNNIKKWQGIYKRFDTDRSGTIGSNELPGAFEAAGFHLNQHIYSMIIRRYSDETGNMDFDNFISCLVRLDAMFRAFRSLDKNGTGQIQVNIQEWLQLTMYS
Experimental: (§1) We also performed the same model of TBI in male and female mice and in male and female rats. In all cases, NA184 was injected i.p. at 1 mg/kg. For the rat experiments, NA184 was injected twice at 1 h and 8 h after TBI. Animals were sacrificed 24 h after TBI and calpain activity was assayed in brain and cell death was analyzed in cortex. […] In addition, there was a highly significant correlation between calpain-2 activity and cell death in rats (FIG. 23). R^2 was 0.61 and p<0.005.

cell death in cortex = assay: Cell death in cortex 24 h after TBI in rats; format: in vivo; settings: 1 mg/kg i.p. at 1 h and 8 h after TBI
Experimental: as §1

| SMILES | Brain concentration A1 [1] | Brain concentration A2 [1] | Brain concentration Mean [1] | IC50 [2] | Calpain-2 inhibition in brain, male and female rats (calpain-2) | Cell death in cortex, male and female rats (cell death in cortex) |
| --- | --- | --- | --- | --- | --- | --- |
| CCC(NC(=O)[C@H](CC(C)C)NC(=O)NCc1ccccc1)C(=O)C(=O)NCc1cc(OC)cc(OC)c1 (mixture of isomers) [NA112, (2S)-2-(3-benzylureido)-N-(1-((3,5-dimethoxybenzyl)amino)-1,2-dioxopentan-3-yl)-4-methylpentanamide] | BLQ | BLQ | BLQ | – | – | – |
| CCC(NC(=O)[C@H](CC(C)C)NC(=O)NCc1ccccc1)C(=O)C(=O)NCc1cccc(Cl)c1OC (stereo partly drawn) [NA184, (2S)-2-(3-benzylureido)-N-(1-((3-chloro-2-methoxybenzyl)amino)-1,2-dioxopentan-3-yl)-4-methylpentanamide] | – | – | – | 543 nM | significantly inhibited calpain-2 | significantly prevented cell death |
